Assay results taken from PubChem BioAssay AID1387 (Sanford-Burnham Center for Chemical Genomics, 2008).

Tested on: CSM14.1 cells, thapsigargin, p-p38/p38 MSD immunoassay
Test: p-p38/p38 reduction after thapsigargin stress – cell lysate, CSM14.1 cells, immunoblotting, mechanism study for ER stress cell death project, dose response (AID 1387)
Conditions: at 10 µM (top of the series)

Question: With `COc1ccc(C2CC(=O)C3=C(C2)Nc2ccccc2NC3c2cccc(Oc3ccccc3)c2)cc1OC` (stereo unspecified) as the molecule, how does the relative p-p38/p38 ratio, lower = inhibition read?
Answer: Its relative p-p38/p38 ratio, lower = inhibition is 0.
